From patent US20220202912A1, “Polypeptides in Preparation of Drugs for Treatment or Prevention of Rheumatoid Arthritis” (priority 2011, published 2022) come the findings set out here.

Marks after values point to notes of the source that are not given here. Where no end group is shown, it is not given here.

One assay relates to cotton ball granuloma. Format: in vivo, SD rats. As to conditions: day 8; 5 mg/kg sc once a day (Dexamethasone, G2). The procedure:
The rats are randomly divided into a model control group, a positive control (dexamethasone) group, and mPEG-SC20k-HM-3 groups using subcutaneous injection at a high dose, a medium dose and a low dose, a total of 5 groups, and the drugs are administered to each group of animals by subcutaneous injection, for 7 days in succession.
Rats in each group are anesthetized with pentobarbital sodium (40 mg/kg) by intraperitoneal injection, and the abdominal coat is cut off. The skin in the middle of the lower abdomen is cut open under aseptic condition, and the incision is about 1 cm long. The subcutaneous tissue is expanded by vascular forceps, and 30 mg of sterile dry cotton balls (weighed accurately by an electronic balance before the test, and undergoing conventional autoclaving and drying for later use) are implanted hypodermically into the groin on one side. The incision is sutured, and an appropriate amount of amoxicillin is sprinkled on the incision to prevent infection.
The drug is administered on the same day after surgery, and is administered for 7 days in succession. On day 8, the rats are killed by cervical dislocation, the cotton balls are removed surgically, the fat tissue is removed, and the […] at 60° C. The mass of granuloma is expressed in mg (granulomatoma)/100 g (body weight). The granuloma mass difference between each administration group and the model control group is compared, and the inhibition rate is calculated. Data statistical analysis is performed on significant differences between the groups.
Inhibition rate (%)=(average granuloma mass of model control group−average granuloma mass of administration group)/average granuloma mass of model control group×100%.

The subject of the next assay is IL-1β. Briefly: IL-1β production by mouse peritoneal macrophages (LPS, ELISA). Particulars: 50 μmoL/L, LPS 5 μg/mL, 48 h. Format: cell-based, C57BL/6 mice. As for the experimental part:
In the test, mice are divided into […], namely a blank control group, a lipopolysaccharide (LPS) model group, a dexamethasone group, and mPEG-SC20k-HM-3 groups at different doses (0.56, 1.12, 2.25, 4.50, 9.00 μmol/L).
(1) IL-1 production: mice are intraperitoneally injected with 1 mL of broth medium (containing 6% of starch). After three days, mouse peritoneal macrophages are taken aseptically and washed twice with RPMI 1640 medium, and the cell concentration is adjusted to 2×10^6 cells/mL. The cells are injected into a 24-well culture plate, 1 mL per well, and the cells are incubated in a cell incubator for 3 h, and vibrated once every 30 min to make the cells fully adhere. Then the cells are washed twice with culture solution to remove non-adherent cells, are cultured continuously for 48 h after administration, and are centrifuged at 1000 r for 15 min. The supernatant is collected as a sample with IL-1β to be tested. (2) Determination of IL-1 content: various solutions are prepared; tested samples and standard substances with different concentrations (100 μL/well) are added into the corresponding wells, reaction wells are sealed with plate-sealing adhesive tape, and incubation is performed at 37° C. for 90 min; the plate is washed four times; biotinylated antibody working solution (100 μL/well) is added, the reaction wells are sealed with plate-sealing adhesive tape, and incubation is performed at 37° C. for 60 min; the plate is washed four times; enzyme conjugate working solution (100 μL/well) is added, the reaction wells are sealed with plate-sealing adhesive tape, and incubation is performed at 37° C. for 30 min; the plate is washed four times; chromogenic reagent (100 μL/well) is added, and incubation is performed at 37° C. for 10-20 min in the absence of light; stop solution (100 μL/well) is added, and the OD 450 nm absorbance is measured immediately after uniform mixing (within 5 min).

For assay [1], the system named is tumor in BALB/c nude mice. Briefly: in vivo pharmacodynamics (antitumor) of PEG-modified HM-3 in BALB/c nude mice. As to conditions: BALB/c nude mice. An excerpt: Four different types of mPEG-ALD and mPEG-SC with different molecular weights are selected to modify the polypeptide […](named HM-3), i.e., mPEG-ALD5k, mPEG-ALD10k, mPEG-SC10k, mPEG-SC20k, and modification reaction conditions are explored and optimized.

A further assay concerns AIA rat models. Briefly: adjuvant-induced arthritis (AIA) rat models. It counts as in vivo, SD rats. As to conditions: for therapeutic effect on adjuvant-induced arthritis in rats (conclusion): rat, in vivo.
Another assay relates to CIA mouse models. Briefly: collagen-induced arthritis (CIA) mouse models. Particulars: for therapeutic effect on collagen-induced arthritis in mice (conclusion): mouse, in vivo. Format: in vivo, DBA/1 mice.
Where [2] appears, read: Table 2, methotrexate 1 mg/kg, once every 5 days, three times.
[3] abbreviates: Tables 4 and 6, methotrexate 1 mg/kg.
[4] abbreviates: Table 1, methotrexate 1 mg/kg, once every 5 days, three times.
Setting [5] is: Tables 3 and 5, methotrexate 1 mg/kg.
The mark [6] stands for this setting: high dose 1.6 mg/kg three times a day, 10 days.
Where [7] appears, read: low dose 0.4 mg/kg three times a day, 10 days.
The mark [8] stands for this setting: medium dose 0.8 mg/kg three times a day, 10 days.
Where [9] appears, read: high dose 3.2 mg/kg twice a day, 10 days.
Where [10] appears, read: low dose 0.8 mg/kg twice a day, 10 days (polypeptide II).
Where [11] appears, read: medium dose 1.6 mg/kg twice a day, 10 days.
Where [12] appears, read: high dose 0.4 mg/kg twice a day, 10 days.
Where [13] appears, read: low dose 0.1 mg/kg twice a day, 10 days.
The mark [14] stands for this setting: medium dose 0.2 mg/kg twice a day, 10 days.
Where [15] appears, read: high dose 0.8 mg/kg twice a day, 10 days.
Setting [16] is: low dose 0.2 mg/kg twice a day, 10 days.
Setting [17] is: medium dose 0.4 mg/kg twice a day, 10 days.

With `C[C@@H]1C[C@H]2[C@@H]3CCC4=CC(=O)C=C[C@]4(C)[C@@]3(F)[C@@H](O)C[C@]2(C)[C@@]1(O)C(=O)CO` [Dexamethasone, reference compound], in the assay with cotton ball granuloma, the “Inhibition rate of cotton ball granuloma” value is reported as 61.59** % and the cotton ball granuloma was 0.11 ± 0.04 mg(cotton ball granuloma)/100 g(weight). In the assay with IL-1β, the IL-1β content was 208.19 ± 13.78 pg/mL. In addition, the inhibition at 50 µM with IL-1β (Mus musculus, Peritoneal macrophage, read-out: Inhibition rate) was 79%.
On to `CC(=O)O[C@H]1C(=O)[C@@]2(C)[C@H]([C@H](OC(=O)c3ccccc3)[C@]3(O)C[C@H](OC(=O)[C@H](O)[C@@H](NC(=O)c4ccccc4)c4ccccc4)C(C)=C1C3(C)C)[C@]1(OC(C)=O)CO[C@@H]1C[C@@H]2O` [paclitaxel, reference compound], for which the “antitumor effect in vivo” value in assay [1] amounted to 44.50%.
Take `CN(Cc1cnc2nc(N)nc(N)c2n1)c1ccc(C(=O)N[C@@H](CCC(=O)O)C(=O)O)cc1` [positive control, methotrexate, reference compound]: in the assay with AIA rat models (setting [2]), the clinical scoring is given as 5.0 ± 1.0, the “swelling of left paw” value is recorded as 3.60 ± 0.72 mm and the “swelling of right paw” value is recorded as 0.68 ± 0.19 mm. In addition, in the assay with AIA rat models (setting [3]), the clinical scoring is listed as 4.00 ± 0.00, the “swelling of left paw” value came out at 3.23 ± 1.20 mm and the “swelling of right paw” value is listed as 0.13 ± 0.33 mm. In the assay with CIA mouse models (setting [4]), the clinical scoring stood at 8.1 ± 1.2, the swelling of joints was found to be 0.76 ± 0.17 mm and the swelling of paws was determined as 0.95 ± 0.19 mm. In the assay on CIA mouse models (setting [5]), the clinical scoring is given as 2.33 ± 2.73, the swelling of joints is listed as −0.19 mm and the swelling of paws is listed as 0.21 ± 0.45 mm.
Regarding “IVRRADRAAVPGGGGRGD [polypeptide II, No. 2]”, the “antitumor effect in vivo” value in assay [1] is on record as 43.92%. For the same compound, the clinical scoring in the assay on AIA rat models (setting [6]) came to 7.29 ± 3.40; in the assay with AIA rat models (setting [7]), 8.29 ± 4.86; with AIA rat models (setting [8]), 6.57 ± 4.24; in the assay on CIA mouse models (setting [9]), 2.67 ± 2.34; with CIA mouse models (setting [10]), 2.33 ± 3.14; in the assay with CIA mouse models (setting [11]), 5.83 ± 2.93. For the same compound, the “swelling of left paw” value stood at 4.98 ± 1.97 mm in the assay with AIA rat models (setting [6]), 5.03 ± 1.99 mm in the assay with AIA rat models (setting [7]) and 4.50 ± 1.95 mm with AIA rat models (setting [8]). Further, the entries for the “swelling of right paw” value in the assay with AIA rat models (setting [6]), with AIA rat models (setting [7]) and in the assay with AIA rat models (setting [8]) were 1.97 ± 1.56 mm, 1.56 ± 1.66 mm and 1.63 ± 1.57 mm, respectively. The “therapeutic effect on adjuvant-induced arthritis in rats (conclusion)” value with AIA rat models was “CONCLUSION: polypeptide II has therapeutic effect on adjuvant-induced arthritis, and its effect is higher than that of polypeptide I”. For the same compound, the swelling of joints is −0.18 mm with CIA mouse models (setting [9]), −0.19 mm in the assay with CIA mouse models (setting [10]) and 0.35 mm in the assay with CIA mouse models (setting [11]). For the same compound, the figures for the swelling of paws with CIA mouse models (setting [9]), with CIA mouse models (setting [10]) and with CIA mouse models (setting [11]) were 0.23 ± 0.35 mm, 0.13 ± 0.28 mm and 0.45 ± 0.41 mm, respectively. For the same compound, the “therapeutic effect on collagen-induced arthritis in mice (conclusion)” value in the assay on CIA mouse models is given as “CONCLUSION: polypeptide II has therapeutic effect on collagen-induced arthritis in mice”.
As for “ACDCRGDCFCGGGGIVRRADRAAVP (cysteine pairing not given here) [polypeptide I, No. 1]”, the clinical scoring in the assay with AIA rat models (setting [12]) came to 6.0 ± 1.2; in the assay with AIA rat models (setting [13]) it was 5.7 ± 1.1; in the assay with AIA rat models (setting [14]), 5.3 ± 1.0; in the assay with CIA mouse models (setting [15]) it was 10.4 ± 1.6; in the assay with CIA mouse models (setting [16]), 9.7 ± 1.5; in the assay on CIA mouse models (setting [17]), 9.1 ± 1.4. In addition, the results for the “swelling of left paw” value in the assay on AIA rat models (setting [12]), in the assay on AIA rat models (setting [13]) and in the assay on AIA rat models (setting [14]) were 4.77 ± 0.95 mm, 4.27 ± 0.85 mm and 3.81 ± 0.76 mm, respectively. Further, the “swelling of right paw” value in the assay on AIA rat models (setting [12]) amounted to 1.25 ± 0.30 mm; with AIA rat models (setting [13]), 1.18 ± 0.31 mm; in the assay on AIA rat models (setting [14]), 0.79 ± 0.18 mm. Also, the “therapeutic effect on adjuvant-induced arthritis in rats (conclusion)” value in the assay on AIA rat models is “CONCLUSION: polypeptide I has therapeutic effect on adjuvant-induced arthritis in rats”. Moreover, the swelling of joints in the assay with CIA mouse models (setting [15]) was 1.05 ± 0.31 mm; in the assay with CIA mouse models (setting [16]), 0.93 ± 0.23 mm; in the assay with CIA mouse models (setting [17]) it was 0.76 ± 0.17 mm. The swelling of paws in the assay with CIA mouse models (setting [15]) is 1.29 ± 0.26 mm; in the assay on CIA mouse models (setting [16]), 1.10 ± 0.22 mm; with CIA mouse models (setting [17]) it was 0.92 ± 0.18 mm. The “therapeutic effect on collagen-induced arthritis in mice (conclusion)” value in the assay with CIA mouse models is on record as “CONCLUSION: polypeptide I has therapeutic effect on collagen-induced arthritis in mice”.
